Measured values reported in paper PMC10333884, “Large‐scale phosphomimetic screening identifies phospho‐modulated motif‐based protein interactions” (Molecular Systems Biology, 2023).
Residues, ends and D or L forms follow the SMILES beside them.

Tests used:
[1] = tested on: bait protein domains; assay: Phosphomimetic ProP-PD selection against the PM_HD2 library (NGS counts, confidence level, PES), any bait; assay type: binding, human; design: Confidence / Max confidence: scale not given here; settings: bait ABL1_SH3__P00519_60_121; for Confidence / Promiscuity / Specificity: selection results by peptide; for Has possible phosphoregulated psite? (PES +2/-2, p<0.01) / Max confidence: hit given as wt version
Description: Selections using the PM_HD2 phage library were performed as described previously with minor modification to the original protocol. The corresponding tag protein (either GST or MBP) was first used during negative selections. Selections were run for 4 days. • Bait and tag proteins (10–15 μg in 100 μl PBS) were immobilised in 96‐well MaxiSorb plate (NUNC) o.n. at 4°C. • Escherichia coli OmniMax bacteria were grown in 2YT medium supplemented with tetracycline (100 μg/ml) at 37°C and 200 rpm. • Plates with immobilised bait/tag proteins were blocked with 0.5% BSA in PBS for 1 h at 4°C. • Phage library (10 μl/well) was prepared by diluting 10× with PBS and adding one‐fourth of the volume of PEG/NaCl. For phage precipitation, prepared library was incubated for 10 min on ice followed by centrifugation for 10 min at 10,000 × g at 4°C. Phages were resuspended in 0.5% BSA, 0.05% Tween in PBS. • Plates with tag proteins were washed 4× with 0.05% Tween in PBS, and naïve phage library was added to each well (100 μl/well) and the plates incubated for 1 h at 4°C. • Plates with bait protein were washed 4× with 0.05% Tween in PBS, and nonbound phages were transferred from the tag protein plate and the plates incubated for 1 h at 4°C. • Plates were again washed 5× with 0.05% Tween in PBS, and bound phages were eluted with log‐phase OmniMax bacteria (100 μl/well) by incubating for 30 min at 37°C at 200 rpm. • M13K07 helper phage (10^12 cfu/ml) was added to each well and the plates incubated for 45 min at 37°C at 200 rpm. • Amplification took place o.n. by adding the eluted phages to 1.1 ml 2YT media supplemented with kanamycin (25 μg/ml), carbenicillin (50 μg/ml) and 0.3 μM IPTG in a 96‐deep‐well plate and incubating o.n. at 37°C at 200 rpm. • Bacteria were pelleted by centrifugation for 15 min at 1,700 × g at 4°C. The phage supernatant was pH‐adjusted by the addition of 10× PBS and remaining bacteria heat‐inactivated by incubating for 10 min at 60°C. Selections were repeated as described from (5).
Based on the results from phage pool ELISAs, samples from selection Day 3 and 4 were selected for NGS, as described previously (Benz et al, [2022]). • Peptide coding regions were amplified and dual‐barcoded by PCR. 5 μl of the enriched phage pools (50 μl reactions) and a high‐fidelity phusion polymerase (Roche) were used for the PCR reaction. Amplification was confirmed by running the PCR product on 2% agarose gel with a 50 bp ladder. • PCR products (25 μl) were purified with 25 μl of Mag‐bind Total Pure NGS beads and normalised in the same step by taking 10 μl of each reaction after resuspension (Qiagen Elution buffer: 10 mM Tris‐Cl and 0.1 mM EDTA (pH 8.5)) from the beads. • The samples were cleaned up with a PCR purification kit (Qiagen) and subsequently run on a 2% agarose gel, and bands of the correct size (ca. 200 bp) were purified with the QIAquick Gel extraction Kit (Qiagen). From the columns, samples were eluted with 30 μl TE (10 mM Tris–HCl, 1 mM EDTA. pH 7.5) buffer and quantified with Quant‐iT PicoGreen dsDNA Assay Kit. • Samples were sequenced on MiSeq (MSC 2.5.0.5/RTA 1.18.54) with a 151 nt (Read1) setup using “Version3” chemistry. The Bcl to FastQ conversion was performed using bcl2fastq_v2.20.0.422 from the CASAVA software suite.
The processing of sequencing data was performed as described in Ali et al ([2020]). In brief: Pooled results from ~500 selection experiments were demultiplexed by identifying unique combinations of 5′ and 3′ barcodes, sequences with an average quality score of 20 or more were conserved and their adaptors were trimmed, and DNA sequences translated using in‐house custom Python scripts. A table for each experiment was built containing peptide sequences associated with their sequencing counts. […]

[2] = target: T1, TSG101 UEV (Homo sapiens, UniProt Q99816); assay: FP displacement assay, TSG101 UEV; assay type: binding; settings: probe FITC-HIV2_Gag 5 nM, 50 mM sodium phosphate pH 7.4, room temperature, at least three technical replicates
T1 construct: TSG101_UEV__Q99816_1_145; made in house; host or cells: Escherichia coli BL21-Gold(DE3)
T1 sequence (Q99816 1-145): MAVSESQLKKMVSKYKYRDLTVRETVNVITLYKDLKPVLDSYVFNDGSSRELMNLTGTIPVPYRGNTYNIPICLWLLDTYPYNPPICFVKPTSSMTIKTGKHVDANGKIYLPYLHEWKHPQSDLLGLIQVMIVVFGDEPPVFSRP
Description: (§1) FP experiments were performed as described previously (Kliche et al, [2021]). Shortly, in order to monitor the binding event, FITC‐labelled peptides were used (excitation 495 nm, emission: 535 nm) and the FP signal was recorded in mP on a SpectraMax iD5 Multi‐Mode Microplate Reader (Molecular Devices) by measuring the emitted light in two angels. The measurements were performed at room temperature and prepared in nonbinding black half area 96‐well microplates (Corning®; 50 μl/well). For measuring direct binding, that is saturation curves, a 1:1 dilution series of protein domain (25 μl/well) was generated in 50 mM sodium phosphate buffer pH 7.4 and the measurement performed with 5 nM FITC‐labelled peptide (25 μl/well). The buffer‐corrected values were subsequently plotted with PRISM and fitted to the quadratic equation (Gianni et al, [2005]).
(§2) The 1:1 dilution series in this experiment was performed with the unlabelled peptide in 50 mM sodium phosphate buffer pH 7.4, so that each well‐contained unlabelled peptide (25 μl) at a certain concentration and pre‐formed complex (25 μl). The KD values of this indirectly monitored binding event were calculated as described previously (Nikolovska‐Coleska et al, [2004]). All measurements were at least in technical triplicates as well as biological duplicates when indicated. An amplitude shift between repeat measurements in the displacement experiments was occasionally observed due to variations in the protein preparations. If that was the case, the “active” protein concentration was back‐calculated according to the quadratic equation from the saturation curves performed in parallel. By comparing the active protein concentrations in the complex between different protein preparations, the amplitude was normalised.

[3] = target: T2, KPNA4 ARM Major (Homo sapiens, UniProt O00629); assay: FP displacement assay, KPNA4 ARM major pocket; assay type: binding; settings: major pocket probe FITC-MYC 5 nM, 50 mM sodium phosphate pH 7.4, room temperature, at least three technical replicates, read-out: KD values ± SEM
T2 construct: 60-487; GST (cleaved yes); made in house; host or cells: Escherichia coli BL21-Gold(DE3)
Description: as §1, §2

[4] = target: T3, KPNA4 ARM minor (Homo sapiens, UniProt O00629); assay: FP displacement assay, KPNA4 ARM minor pocket; assay type: binding; settings: minor pocket probe FITC-NCOR2 5 nM, 50 mM sodium phosphate pH 7.4, room temperature, at least three technical replicates, read-out: KD values ± SEM
T3 construct: 60-487; GST (cleaved yes); made in house; host or cells: Escherichia coli BL21-Gold(DE3)
Description: as §1, §2

T2 sequence (O00629 60-487): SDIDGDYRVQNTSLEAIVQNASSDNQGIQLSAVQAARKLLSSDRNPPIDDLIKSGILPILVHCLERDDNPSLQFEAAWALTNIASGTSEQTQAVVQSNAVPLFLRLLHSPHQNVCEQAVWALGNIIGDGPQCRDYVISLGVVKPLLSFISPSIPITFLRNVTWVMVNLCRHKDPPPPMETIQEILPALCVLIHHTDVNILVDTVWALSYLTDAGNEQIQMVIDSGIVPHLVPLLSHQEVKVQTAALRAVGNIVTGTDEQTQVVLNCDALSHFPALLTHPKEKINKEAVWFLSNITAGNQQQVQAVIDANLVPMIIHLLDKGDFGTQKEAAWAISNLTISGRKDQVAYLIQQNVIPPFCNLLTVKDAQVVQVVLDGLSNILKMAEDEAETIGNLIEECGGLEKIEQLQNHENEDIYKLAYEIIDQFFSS
T3 sequence (O00629 60-487): as above

Molecule | Confidence [1] | Promiscuity [1] | Specificity [1] | Has possible phosphoregulated psite? (PES +2/-2, p<0.01) [1] | Max confidence [1] | further results
PATSPPKTPPQLEALQ [listing 1 of 2 here] | 3 | 3 | 0.9995 | – | – | –
DAPPHYPPPSTAAASP [listing 1 of 2 here] | – | – | – | yes | 3 | –
CC(=O)N[C@@H](Cc1c[nH]cn1)C(=O)N[C@@H](CO)C(=O)NCC(=O)N[C@@H](CC(N)=O)C(=O)N[C@H](C(=O)N[C@H](C(=O)N1CCC[C@H]1C(=O)N[C@H](C(=O)N[C@@H](C)C(=O)N1CCC[C@H]1C(=O)N1CCC[C@H]1C(=O)N[C@@H](Cc1ccc(O)cc1)C(=O)N[C@@H](CC(C)C)C(=O)N[C@@H](CCC(N)=O)C(=O)N[C@@H](CCC(=O)O)C(=O)N[C@@H](CO)C(N)=O)[C@@H](C)O)[C@@H](C)O)C(C)C [PIP4P2_17–32 wt] (Ac-HSGNVTPTAPPYLQES-NH2) | – | – | – | – | – | Kd ([2]; read-out: KD values ± SEM): 14 ± 1 µM
PATSPPKTPPQLEALQ [listing 2 of 2 here] | – | – | – | yes | 3 | –
DAPPHYPPPSTAAASP [listing 2 of 2 here] | 2 | 3 | 0.7461 | – | – | –
CC(=O)N[C@@H](CC(=O)O)C(=O)N[C@H](C(=O)N[C@@H](CCC(=O)O)C(=O)N[C@@H](Cc1c[nH]cn1)C(=O)NCC(=O)NCC(=O)N[C@@H](CCCCN)C(=O)N[C@@H](CCCNC(=N)N)C(=O)N[C@@H](CO)C(=O)N[C@@H](CCCNC(=N)N)C(=O)N[C@@H](CC(C)C)C(=O)N[C@H](C(=O)N1CCC[C@H]1C(=O)N[C@H](C(=O)N[C@@H](CO)C(=O)N[C@@H](Cc1ccc(O)cc1)C(N)=O)C(C)C)[C@@H](C)O)C(C)C [SQSTM1_258–272 wt] (Ac-DVEHGGKRSRLTPVSY-NH2) | – | – | – | – | – | Kd [3]: 0.24 ± 0.04 µM; Kd [4]: 14 ± 0.7 µM
H3COC-QSIAREPS(pS/E)APSIPTPY-NH2 [PDCD6IP711–725 pS, phosphorylated PDCD6IP 711-725 peptide] | – | – | – | – | – | KD values ± SEM [2]: n.b.
DAPPHYPPPSTAAAEP | 3 | 4 | 0.8807 | – | – | –
SPPRPPPPPPLLGTVS | – | – | – | yes | 3 | –
